Tests used:
Rb-negative tumors = conditions: reported by Michaud et al., Cancer Res. 70:3228-3238 (2010); cited from earlier work
[1] = tested on: patients with ER+/HER2− metastatic breast cancer; test: Phase 1b trial, expansion portion: gedatolisib plus palbociclib plus fulvestrant or letrozole; type: in vivo, human; conditions: for Overall Response Rate: partial objective response; for # of Partial Responses: patients who failed 2 or more prior lines of therapy; for median duration of treatment, Arm D relative to Arm C: 3 weeks on/1 week off vs weekly
Source text: To evaluate this hypothesis, Pfizer initiated a Phase 1b trial dose-finding trial with a four-armed expansion portion for safety and efficacy to evaluate gedatolisib when added to either the standard doses of palbociclib plus letrozole or palbociclib plus fulvestrant in patients with ER+/HER2− metastatic breast cancer. PI3K mutation status was not used as an eligibility criterion. Patient enrollment for the trial is complete. A preliminary analysis for the 103 patients enrolled in the expansion portion of the Phase 1b clinical trial, as of the database cutoff date of Jan. […] 1. Objectives
(§1) This is a Phase 1b, multicenter, open-label, study in patients with mBC. This study has both a dose escalation and expansion portion. The dose escalation portion will identify the MTD of the combination of gedatolisib plus palbociclib/letrozole and gedatolisib plus palbociclib/fulvestrant. The expansion portion will estimate the objective response rate of the combination of gedatolisib plus palbociclib/letrozole and the combination of gedatolisib plus palbociclib/fulvestrant.
The study population for the dose escalation and the dose expansion consists of patients of any menopausal status with ER-positive, HER2-negative, metastatic or locally-recurrent/advanced breast cancer (mBC).
Once the MTD of each combination was determined this triggers the initiation of the expansion portion, which comprises 4 arms, as follows: (1) Arm A: first-line endocrine-based therapy; (2) Arm B: second- or third-line endocrine-based therapy, without prior palbociclib (or other CDK inhibitor) therapy; (3) Arm C: second- or third-line endocrine-based therapy with prior exposure to palbociclib (or other CDK inhibitor) therapy, in which gedatolisib is administered once weekly for four weeks; and (4) Arm D: second or third line endocrine based therapy with progression on palbociclib (or other CDK inhibitor) therapy (as the most recent regimen), in which gedatolisib is administered on a three weeks on/one week off (3:1) schedule.
All cycles are 28 days in length. Gedatolisib is administered IV weekly on Days 1, 8, 15 and 22 of each cycle (except for Arm D, in which gedatolisib is administered on Days 1, 8 and 15 of each cycle), palbociclib is administered at 125 mg/day orally continuously dosed for 3 weeks followed by 1 week off, repeated at each subsequent cycle. Letrozole 2.5 mg daily is administered orally on a continuous basis (daily) and fulvestrant is administered at a dose of 500 mg intramuscularly on Cycle 1 Day 1, Cycle 1 Day 15, Cycle 2 Day 1, and then on […] of each subsequent cycle (±3 days).
Gedatolisib was administered weekly as an IV infusion over approximately 30 minutes. (Dose Escalation; Dose Expansion: Arm A, Arm B and Arm C).
In Arm D of the Dose Expansion portion, gedatolisib was administered on a 3 week on/one week off schedule as an IV infusion over approximately 30 minutes. No premedication was required.
The coprimary efficacy endpoints of the study were (1) first cycle Dose-Limiting Toxicities (DLTs); and (2) Objective response (OR) as assessed by the Investigator.
The secondary efficacy endpoints of the study were: • 1) Safety including adverse events as characterized by type, frequency, severity, timing, seriousness and relationship to study therapy and laboratory abnormalities as characterized by type, frequency, severity and timing. • 2) Tumor response for the dose escalation portion of the study. • 3) DR and PFS (as assessed using the RECIST v 1.1) for the expansion portion of the study. • 4) QTc interval. • 5) Single and multiple dose PK parameters of gedatolisib and palbociclib. Multiple dose PK parameters of fulvestrant and letrozole (Dose Escalation portion only). • 6) Single and multiple dose PK parameters of gedatolisib (Dose Expansion portion only). 7. Results
Arm D patients received gedatolisib (180 mg IV three weeks on/one week off). […]

[2] = Phase 1b trial, dose escalation portion: maximum tolerated dose; type: in vivo, human; conditions: IV, in triplet combination with palbociclib and letrozole or fulvestrant
Source text: The primary objective of the study was to assess the safety, tolerability, and maximum tolerated dose (MTD) of the triplet combination of gedatolisib added to either the standard dose of the palbociclib/letrozole or palbociclib/fulvestrant.
as §1
The dose escalation portion of the study initially assess safety and tolerability of the 180 mg/week dose of gedatolisib plus standard doses of palbociclib/letrozole or 180 mg/week dose of gedatolisib plus standard doses of palbociclib/fulvestrant. The dose escalation portion then explore escalating doses of gedatolisib plus each regimen. During the dose escalation 10 DLT evaluable patients are treated at the expected MTD.
The conventional approach to determining the dosing schedule for a therapeutic regimen for cancer patients is to determine the maximum tolerated dose in a Phase 1 clinical trial. […]

[3] = Stability of crystalline form on storage; type: physicochemical; conditions: 25° C. and 60% Relative Humidity (RH)
Source text: (§2) Gedatolisib is a pan-class I isoform PI3K/mTOR inhibitor with high potency (NCT02626507, Apr. 24, 2020). The chemical synthesis of gedatolisib is disclosed in U.S. Pat. Nos. 8,039,469; 8,217,036; 8,445,486; 8,575,159; 8,748,421; 8,859,542; 9,174,963; 10,022,381, which are hereby incorporated by reference in their entirety. […] Accordingly, formulations that allow for therapeutic dosage levels have been developed.

[4] = Aqueous solubility / achievable solution concentration; type: physicochemical; conditions: free base; for aqueous IV or parenteral solution at therapeutic dosage levels
Source text: as §2, with “developed. The formulations include gedatolisib, or a methanesulphonate salt thereof, methanesulphonic acid, and water. […] Another formulation disclosed is gedatolisib, or an ethanesulphonate salt thereof, ethanesulphonic acid and water.” for “developed.”

[5] = tested on: MCF7 xenograft model (ER+/HER2−/PIK3CA mutant); conditions: cited from earlier work
[6] = aqueous formulation with methanesulphonic acid or ethanesulphonic acid; WO2019038657; cited from earlier work
[7] = Arm C, weekly, failed 2 or more prior lines of therapy
[8] = Arm D vs Arm C, failed 2 or more prior lines of therapy
[9] = Arm D, 3 weeks on/1 week off, DIPT < 180 days
[10] = Arm D, 3 weeks on/1 week off, DIPT < 365 days
[11] = Arm D, 3 weeks on/1 week off, failed 2 or more prior lines of therapy

CC(=O)c1c(C)c2cnc(Nc3ccc(N4CCNCC4)cn3)nc2n(C2CCCC2)c1=O [PD-0332991, 6-acetyl-8-cyclopentyl-5-methyl-2-(5-piperazin-1-yl-pyridin-2-ylammino)-8H-pyrido-[2,3-d]-pyrimidin-7-one]
activity against Rb-negative tumors (Rb-negative tumors): inactive

CN(C)C1CCN(C(=O)c2ccc(NC(=O)Nc3ccc(-c4nc(N5CCOCC5)nc(N5CCOCC5)n4)cc3)cc2)CC1 [gedatolisib, 1-(4-{[4-(Dimethylamino)piperidin-1-yl]carbonyl}phenyl)-3-[4-(4,6-dimorpholin-4-yl-1,3,5-triazin-2-yl)phenyl]urea]
Median Duration of Gedatolisib (DGT) Treatment ([1]; Arm C, weekly gedatolisib with palbociclib and fulvestrant, DIPT < 180 days): 81 days
Median Duration of Gedatolisib (DGT) Treatment ([1]; Arm C, weekly gedatolisib with palbociclib and fulvestrant, DIPT < 365 days): 131 days
Ratio of median DIPT vs. DGT ([1]; Arm C, weekly, DIPT < 180 days): 0.8
Overall Response Rate ([1]; Arm C, weekly, DIPT < 180 days): 0%
Overall Response Rate ([1]; Arm C, weekly, DIPT < 180 days, listed as Gedatolisib): 0%
Ratio of median DIPT vs. DGT ([1]; Arm C, weekly, DIPT < 365 days): 0.9
Overall Response Rate ([1]; Arm C, weekly, DIPT < 365 days): 15%
Overall Response Rate ([1]; Arm C, weekly, DIPT < 365 days, listed as Gedatolisib): 15%
Mean Progression Free Survival [1, 7]: 233
Objective Response Rate [1, 7]: 32%
# of Partial Responses ([1]; Arm C, weekly, 19 evaluable): 6
Mean Progression Free Survival, Odds Ratio [1, 8]: 2.28
Objective Response Rate, Odds Ratio [1, 8]: 2.4
Objective Response Rate, Odds Ratio ([1]; Arm D vs Arm C, failed 2 or more prior lines of therapy, listed as Gedatolisib): 2.44
Ratio of median DIPT vs. DGT [1, 9]: 2.6
Overall Response Rate [1, 9]: 71%
Overall Response Rate ([1]; Arm D, 3 weeks on/1 week off, DIPT < 180 days, listed as Gedatolisib): 71%
Ratio of median DIPT vs. DGT [1, 10]: 1.8
Overall Response Rate [1, 10]: 73%
Overall Response Rate ([1]; Arm D, 3 weeks on/1 week off, DIPT < 365 days, listed as Gedatolisib): 73%
Mean Progression Free Survival [1, 11]: 531
Objective Response Rate [1, 11]: 78%
# of Partial Responses ([1]; Arm D, 3 weeks on/1 week off, 9 evaluable): 7
Median Duration of Gedatolisib (DGT) Treatment ([1]; Arm D, gedatolisib 180 mg IV 3 weeks on/1 week off with palbociclib and fulvestrant, DIPT < 180 days): 270 days
Median Duration of Gedatolisib (DGT) Treatment ([1]; Arm D, gedatolisib 180 mg IV 3 weeks on/1 week off with palbociclib and fulvestrant, DIPT < 365 days): 276 days
Median progression free survival ([1]; Arm D: prior endocrine therapy plus CDK4/6 inhibitor, gedatolisib 3 weeks on/1 week off with palbociclib and fulvestrant): 13.2 months
clinical benefit rate (CBR) ([1]; expansion portion, all arms, 88 evaluable patients, confirmed PR or stable disease for 24 weeks, cutoff Jan. 11, 2021): 75%
objective response rate (ORR) ([1]; expansion portion, all arms, 88 evaluable patients, confirmed or unconfirmed PR, with palbociclib plus letrozole or fulvestrant, cutoff Jan. 11, 2021, preliminary analysis): 60%
median duration of treatment, Arm D relative to Arm C ([1]; patients who progressed on immediate prior therapy in ≤6 months): more than 3 times
median duration of treatment, Arm D relative to Arm C ([1]; patients who progressed on immediate prior therapy in ≤12 months): more than two times longer
maximum tolerated dose [2]: 180 mg weekly
chemically and physically stable for [3]: up to 3 years
water solubility [4]: insufficiently water soluble
time tumors remained dormant without further therapy ([5]; after triplet therapy (gedatolisib, palbociclib, fulvestrant)): up to 90 days
tumor response ([5]; combination of gedatolisib with palbociclib and fulvestrant, Pfizer internal preclinical study): durable tumor regressions
time for tumors to regress to minimal volumes ([5]; triplet therapy (gedatolisib, palbociclib, fulvestrant)): ≤ 20 days
solution concentration achieved (clear, essentially particle-free solution) [6]: up to 30 mg/ml
